Measurements reported in US20120108501A1, “Protease Inhibitors” (priority 2009, published 2012).

Key:
CEM-SS cells = type: cell-based
Protocol: (§1) To evaluate whether the protease inhibitors described herein retain the ability to protect against HIV-1 infection, CEM-SS cells infected with the RF strain of HIV-1 were treated with test compounds for six days, and then cell viability was monitored using the tetrazolium dye XTT. Infection studies were performed and EC50 values were calculated as the protease inhibitor concentration leading to 50% reduction in cell death compared to virus-infected cells without protease inhibitor. TC50 values were calculated as the protease inhibitor concentration leading to 50% cell death in the absence of viral infection. A value for Therapeutic Index (TI) was calculated as TC50/EC50.

[1] = system: HT/92/599 clinical subtype B HIV-1; experiment: HIV-1 reverse transcriptase activity following infection in fresh human PBMCs; type: cell-based; conditions: seven days; for EC50: read-out: PBMC/HIV-1HT/92/599 EC50; for EC90: read-out: PBMC/HIV-1HT/92/599 EC90
Protocol: Fresh human peripheral blood mononuclear cells (PBMCs) obtained from a commercial source were purified following centrifugation using a Ficoll-Hypaque density gradient. Viable cells were induced to proliferate in the presence of PHA-P and recombinant human IL-2 for 72 hours. PBMCs pooled from three donors were cultured with test compounds in the presence of the HT/92/599 clinical subtype B HIV-1 for seven days, followed by measurement of reverse transcriptase activity in cell supernatants using a radioactive incorporation polymerization assay. […] Incorporation of TTP into DNA was monitored by spotting the reaction mixture onto a DEAE filter mat, followed by washes with 5% phosphate buffer, distilled water, and 70% ethanol, and subsequent drying of the mat. Radioactivity was measured using a Wallac 1450 Microbeta Trilux liquid scintillation counter using Opti-Fluor O. Test compound-associated toxicity was measured in PBMCs cultured for seven days in the absence of virus using XTT reagent. EC50 and EC90 values were calculated as the protease inhibitor concentration leading to 50% and 90% reduction in […], respectively, compared to virus-infected cells without protease inhibitor. TC50 values were calculated as the protease inhibitor concentration leading to 50% cell death in the absence of viral infection. A value for Therapeutic Index (TI) was calculated as TC50/EC50.

[2] = system: human peripheral blood mononuclear cells (PBMCs); type: cell-based
Protocol: Fresh human peripheral blood mononuclear cells (PBMCs) obtained from a commercial source were purified following centrifugation using a Ficoll-Hypaque density gradient. Viable cells were induced to proliferate in the presence of PHA-P and recombinant human IL-2 for 72 hours. PBMCs pooled from three donors were cultured with test compounds in the presence of the HT/92/599 clinical subtype B HIV-1 for seven days, followed by measurement of reverse transcriptase activity in cell supernatants using a radioactive incorporation polymerization assay. Cell supernatant containing HIV-1 viral was incubated for 90 minutes at 37° C. with a reaction mixture containing EGTA, Triton X-100, Tris (pH 7.4), DTT, MgCl2, poly rA, oligo dT, and tritiated thymidine triphosphate (TTP). Incorporation of TTP into DNA was monitored by spotting the reaction mixture onto a DEAE filter mat, followed by washes with 5% phosphate buffer, distilled water, and 70% ethanol, and subsequent drying of the mat. Radioactivity was measured using a Wallac 1450 Microbeta Trilux liquid scintillation counter using Opti-Fluor O. Test compound-associated toxicity was measured in PBMCs cultured for seven days in the absence of virus using XTT reagent. EC50 and EC90 values were calculated as the protease inhibitor concentration leading to 50% and 90% reduction in […], respectively, compared to virus-infected cells without protease inhibitor. TC50 values were calculated as the protease inhibitor concentration leading to 50% cell death in the absence of viral infection. A value for Therapeutic Index (TI) was calculated as TC50/EC50.

HIV-1RF = experiment: Cytoprotection in CEM-SS cells infected with HIV-1RF (XTT); type: cell-based; conditions: CEM-SS cells infected with RF strain of HIV-1, six days
Protocol: as §1

[3] = Pharmacokinetics of released PEGylated protease inhibitor following P.O. administration of prodrugs in rats; type: in vivo, male Sprague-Dawley rats; set-up: AUCall Mean: concentration or dose not given beside the values; conditions: mPEG6-atazanavir in plasma after PO administration of mPEG6-ATV or of the listed prodrug, rats (n = 4-5)
Outline: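 Prodrugs given orally to male Sprague-Dawley rats, with serial blood via jugular catheter into K2EDTA. Plasma levels of test article or released PEGylated inhibitor measured by LC-MS/MS. PK parameters from noncompartmental analysis.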

## CCCCCCCCCCCCCCCCOCC(COP(=O)(O)OC(CN(Cc1ccc(-c2ccccn2)cc1)NC(=O)C(NC(=O)OC)C(C)(C)C)C(Cc1ccccc1)NC(=O)C(NC(=O)OCCOCCOCCOC)C(C)(C)C)OC (centres unmarked) [mPEG3-Atazanavir-monophospholipid]
CEM-SS cells
  CC50: 14.2 µM
[1]
  EC50: 0.97 µM
  EC90: 2.52 µM
[2]
  CC50: 43.7 µM
HIV-1RF
  EC50: 0.35 µM

## CCCCCCCCCCCCCCCCOCC(COP(=O)(O)OC(CN(Cc1ccc(-c2ccccn2)cc1)NC(=O)C(NC(=O)OC)C(C)(C)C)C(Cc1ccccc1)NC(=O)C(NC(=O)OCCOCCOCCOCCOCCOCCOC)C(C)(C)C)OC (centres unmarked) [mPEG6-Atazanavir-monophospholipid, mPEG6-atazanavir monophospholipid]
CEM-SS cells
  CC50: 12.6 µM
[3]
  AUCall Mean: 0.108 ng·h/mL
  Cmax Mean: 0.432 ng/mL
  MRT last Mean: 15 min
  Tmax Median: 15 min
[1]
  EC50: 12.4 µM
  EC90: 26.3 µM
[2]
  CC50: 37.6 µM
HIV-1RF
  EC50: 14.2 µM

## CCCCCCCCCCCCCCCCOCC(COP(=O)(O)OC(CN(Cc1ccc(-c2ccccn2)cc1)NC(=O)C(NC(=O)OC)C(C)(C)C)C(Cc1ccccc1)NC(=O)C(NC(=O)OCCOCCOCCOCCOCCOC)C(C)(C)C)OC (centres unmarked) [mPEG5-Atazanavir-monophospholipid]
CEM-SS cells
  CC50: 12 µM
[1]
  EC50: 12.3 µM
  EC90: 26.8 µM
[2]
  CC50: 17.1 µM
HIV-1RF
  CEM-SS/HIV-1RF EC50: no EC50 value could be determined
  EC50: > 200 µM
